According to patent US20090018019A1, “INCREASING PATHOGEN DEFENCE IN PLANTS” (priority 2005, published 2009):
“Also recorded” adds a separate entry of the source.

What was measured:
Type in all cases: in vivo
[1] = test system: genes for PR proteins; test: DNA chip expression analysis of barley leaves after soil treatment, gene group; conditions: treated plants compared with non-treated plants
Experimental: (§1) Barley seeds (of the Baroness variety) were sown in pots containing soil about 2 cm deep (1250 g of sandy loam/per pot; the soil moisture content was adjusted to 70% of the maximum water-holding capacity) and cultivated in a climatized chamber under specified light, moisture and temperature conditions (15 h white light, 70% atmospheric humidity, 23-19° C. day/night).
(§2) 14 days after the emergence of the barley plants 10 mg of imidacloprid per plant, dissolved in 100 ml water, were applied by means of a pipette to the soil around the base of the shoot. The same volume of water without any active compound was applied to the control pots. After the soil treatment the plants were no longer watered. At various times after application (0.25; 1; 6; 8; 11; 13; 15; 16 and 17 days) the leaves were harvested, quick-frozen in liquid nitrogen and stored at −80° C. until further treatment.
The labelled RNA probes for the DNA chip hybridization were produced according to the protocols (Expression Analysis, Technical Manual) of the Affymetrix company (Affymetrix Inc., 3380 Central Expressway, Santa Clara, Calif., USA). Whole RNA was first of all isolated from in each case 500 mg of the harvested leaves. […] The fluorescence data obtained were analyzed with the Microarray Suite 5 software from Affymetrix and the Expressionist Pro software from the GeneData company. […]

[2] = test system: Contig4405_x_at PATHOGENESIS-RELATED PROTEIN PR-10A; test: DNA chip expression analysis of barley leaves after soil treatment; conditions: 10 mg per plant to soil
Experimental: as §1, §2
(§3) The labelled RNA probes for the DNA chip hybridization were produced according to the protocols (Expression Analysis, Technical Manual) of the Affymetrix company (Affymetrix Inc., 3380 Central Expressway, Santa Clara, Calif., USA). Whole RNA was first of all isolated from in each case 500 mg of the harvested leaves. 10 μg portions of whole RNA were used for the first and second strand cDNA synthesis. The cDNA was amplified with T7 polymerase and simultaneously labelled with biotin-UTP. 20 μg portions of this biotinylated cDNA were used for the hybridization of the barley genome array (Barleyl Gene Chip, Item no: 511012) from Affymetrix. This DNA microarray contains DNA sequences of 22840 genes composed of a total of 400000 EST (Expressed Sequence Tag) sequences. Then the DNA microarrays were washed in the Affymetrix Fluidics Station, stained with streptavidin/phycoerythrin (Molecular Probes, P/N S-866) and scanned with the Affymetrix Gene Chip Scanner 3000. The fluorescence data obtained were analyzed with the Microarray Suite 5 software from Affymetrix and the Expressionist Pro software from the GeneData company. After a quality check, all of the DNA chip analyses were stored in a database. Since the Affymetrix Gene Chip System is based on measuring the absolute expression values of the genes contained in the chip, the expression values of the biological replicates of treated and non-treated plants were averaged after normalization (median calculation). With the aid of the statistical ANOVA method, those genes were identified whose expression was increased in the plants treated with imidacloprid but remained relatively constant in the untreated controls. The assembly of gene groups from specific metabolic pathways, signal transduction chains or functions was carried out by a keyword search through the gene annotations supplied by Affymetrix and by linking the genes to their corresponding Gene Ontology Annotations (Gene Ontology Consortium).

[3] = test system: Contig2788_x_at THAUMATIN-LIKE PROTEIN TLP7; test: as above; conditions: 10 mg per plant to soil
Experimental: as §1, §2, §3

[4] = test system: Contig2209_at PATHOGENESIS RELATED PROTEIN (HV-1A); test: as above; conditions: 10 mg per plant to soil
Experimental: as §1, §2, §3

[5] = test system: HV_CEb0020C01r2_at INTEGUMENTARY MUCIN B.1; test: as above; conditions: 10 mg per plant to soil
Experimental: as §1, §2, §3

SMILES: O=[N+]([O-])/N=C1\NCCN1Cc1ccc(Cl)nc1 [imidacloprid]
- expression of genes for PR proteins [1]: increased expression; also recorded: powerful induction
- Induction factor = Expression (treated)/Expression (untreated) ([2]; 0.25 d): 1.1
- Median of the raw expression data, treated ([2]; 0.25 days): 60.34
- Induction factor = Expression (treated)/Expression (untreated) ([2]; 1 d): 0.9
- Median of the raw expression data, treated ([2]; 1 day): 55.96
- Induction factor = Expression (treated)/Expression (untreated) ([2]; 6 d): 2.1
- Median of the raw expression data, treated ([2]; 6 days): 146.82
- Induction factor = Expression (treated)/Expression (untreated) ([2]; 8 d): 2.8
- Median of the raw expression data, treated ([2]; 8 days): 181.30
- Induction factor = Expression (treated)/Expression (untreated) ([2]; 11 d): 2.2
- Median of the raw expression data, treated ([2]; 11 days): 125.79
- Induction factor = Expression (treated)/Expression (untreated) ([2]; 13 d): 1.3
- Median of the raw expression data, treated ([2]; 13 days): 55.42
- Induction factor = Expression (treated)/Expression (untreated) ([2]; 15 d): 1.1
- Median of the raw expression data, treated ([2]; 15 days): 57.66
- Induction factor = Expression (treated)/Expression (untreated) ([2]; 16 d): 1.4
- Median of the raw expression data, treated ([2]; 16 days): 88.69
- Induction factor = Expression (treated)/Expression (untreated) ([2]; 17 d): 1.5
- Median of the raw expression data, treated ([2]; 17 days): 87.06
- Induction factor = Expression (treated)/Expression (untreated) ([3]; 0.25 d): 0.8
- Median of the raw expression data, treated ([3]; 0.25 days): 71.22
- Induction factor = Expression (treated)/Expression (untreated) ([3]; 1 d): 0.7
- Median of the raw expression data, treated ([3]; 1 day): 70.44
- Induction factor = Expression (treated)/Expression (untreated) ([3]; 6 d): 12.2
- Median of the raw expression data, treated ([3]; 6 days): 5432.88
- Induction factor = Expression (treated)/Expression (untreated) ([3]; 8 d): 8.0
- Median of the raw expression data, treated ([3]; 8 days): 7952.61
- Induction factor = Expression (treated)/Expression (untreated) ([3]; 11 d): 6.3
- Median of the raw expression data, treated ([3]; 11 days): 12190.31
- Induction factor = Expression (treated)/Expression (untreated) ([3]; 13 d): 2.3
- Median of the raw expression data, treated ([3]; 13 days): 4800.62
- Induction factor = Expression (treated)/Expression (untreated) ([3]; 15 d): 1.5
- Median of the raw expression data, treated ([3]; 15 days): 4880.14
- Induction factor = Expression (treated)/Expression (untreated) ([3]; 16 d): 2.5
- Median of the raw expression data, treated ([3]; 16 days): 1836.52
- Induction factor = Expression (treated)/Expression (untreated) ([3]; 17 d): 1.2
- Median of the raw expression data, treated ([3]; 17 days): 1166.53
- Induction factor = Expression (treated)/Expression (untreated) ([4]; 0.25 d): 0.8
- Median of the raw expression data, treated ([4]; 0.25 days): 187.60
- Induction factor = Expression (treated)/Expression (untreated) ([4]; 1 d): 0.6
- Median of the raw expression data, treated ([4]; 1 day): 153.35
- Induction factor = Expression (treated)/Expression (untreated) ([4]; 6 d): 9.8
- Median of the raw expression data, treated ([4]; 6 days): 4773.49
- Induction factor = Expression (treated)/Expression (untreated) ([4]; 8 d): 11.5
- Median of the raw expression data, treated ([4]; 8 days): 8173.99
- Induction factor = Expression (treated)/Expression (untreated) ([4]; 11 d): 12.1
- Median of the raw expression data, treated ([4]; 11 days): 8587.82
- Induction factor = Expression (treated)/Expression (untreated) ([4]; 13 d): 6.0
- Median of the raw expression data, treated ([4]; 13 days): 1723.94
- Induction factor = Expression (treated)/Expression (untreated) ([4]; 15 d): 2.7
- Median of the raw expression data, treated ([4]; 15 days): 1689.29
- Induction factor = Expression (treated)/Expression (untreated) ([4]; 16 d): 2.5
- Median of the raw expression data, treated ([4]; 16 days): 2069.04
- Induction factor = Expression (treated)/Expression (untreated) ([4]; 17 d): 0.6
- Median of the raw expression data, treated ([4]; 17 days): 888.58
- Induction factor = Expression (treated)/Expression (untreated) ([5]; 0.25 d): 1.4
- Median of the raw expression data, treated ([5]; 0.25 days): 96.81
- Induction factor = Expression (treated)/Expression (untreated) ([5]; 1 d): 0.9
- Median of the raw expression data, treated ([5]; 1 day): 87.44
- Induction factor = Expression (treated)/Expression (untreated) ([5]; 6 d): 4.3
- Median of the raw expression data, treated ([5]; 6 days): 418.12
- Induction factor = Expression (treated)/Expression (untreated) ([5]; 8 d): 2.8
- Median of the raw expression data, treated ([5]; 8 days): 428.35
- Induction factor = Expression (treated)/Expression (untreated) ([5]; 11 d): 2.2
- Median of the raw expression data, treated ([5]; 11 days): 389.74
- Induction factor = Expression (treated)/Expression (untreated) ([5]; 13 d): 1.7
- Median of the raw expression data, treated ([5]; 13 days): 180.00
- Induction factor = Expression (treated)/Expression (untreated) ([5]; 15 d): 1.0
- Median of the raw expression data, treated ([5]; 15 days): 170.35
- Induction factor = Expression (treated)/Expression (untreated) ([5]; 16 d): 1.2
- Median of the raw expression data, treated ([5]; 16 days): 161.77
- Induction factor = Expression (treated)/Expression (untreated) ([5]; 17 d): 0.6
- Median of the raw expression data, treated ([5]; 17 days): 106.72
